Measurements published in patent publication US9724344B2, “Enhanced delivery of drug compositions to treat life threatening infections” (BOARD OF REGENTS, THE UNIVERSITY OF TEXAS SYSTEM, priority 2004, dated 2017).

Assays:
[1] = Dissolution testing, United States Pharmacopeia 24 Type 2 apparatus (Examples 19-23); type: physicochemical; conditions: Avg
Method: For Examples 19-23, dissolution testing is performed on the samples using a United States Pharmacopeia 24 Type 2 apparatus (Distek Dissolution System […] with a TCS0200C heater/circulator; Crescent Scientific Pvt. Ltd.; Goregaon-East, Mumbai, India).

[2] = cited from earlier work
IL-12p70 = experiment: ELISA of BAL supernatant for IL-12 elevation (inflammatory response); type: in vivo, mice; conditions: pulmonary administration, compared to excipients alone and saline
Method: FIG. 5 is a chart depicting lung concentration levels of IL-12p70 for an embodiment of the present invention. Mean IL-12p70 concentrations measured according to Example 32 via ELISA assay of the positive control, negative control and BAL supernatants of sacrificed mice. Surgery was performed on sacrificed mice to expose the pleural cavity and trachea at the throat. A small incision was cut into the trachea and a cannula consisting of a 23 gauge needle with a sheath of plastic tubing (0.037″ outside diameter (OD) and 0.025″ ID) was inserted through the incision to the base of the trachea and clamped to seal the opening. An aliquot (0.75 mL) of phosphate buffered saline was instilled through the cannula into the lungs and then removed to wash the bronchial and alveolar surfaces. This process was repeated for a total of three washes. The phosphate buffered saline containing cells was placed into centrifuge vials and centrifuged at 300 rpm (MiniSpin Plus. Eppendorf International, Hamburg, Del.). The supernatant was removed leaving the collected cells in the pellet. The supernatant from the BAL (Bronchoalveolar Lavage) was analyzed by enzyme-linked immunosorbent assay (ELISA) for IL-12 elevation (n=2 per sample tested).

airway macrophages = experiment: Macrophage uptake of ITZ dosed via pulmonary administration; type: in vivo; conditions: samples taken on days 1, 3, 8 and 12
From the text: Cells (airway macrophages) were recovered from the lung and subjected to drug extraction and analyzed by mass spectroscopy for confirmation of ITZ presence in the macrophage.

SMILES	Percent Dissolved ([1]; 2 minutes)	Percent Dissolved ([1]; 5 minutes)	Percent Dissolved ([1]; 10 minutes)	Percent Dissolved ([1]; 15 minutes)	Percent Dissolved ([1]; 20 minutes)	Percent Dissolved ([1]; 25 minutes)	Percent Dissolved ([1]; 30 minutes)	Percent Dissolved ([1]; 60 minutes)	Percent Dissolved ([1]; 120 minutes)	aqueous solubility [2]	IL-12 elevation in BAL supernatant (IL-12p70)	ITZ presence in airway macrophages (mass spectroscopy) (airway macrophages)
CCC(C)n1ncn(-c2ccc(N3CCN(c4ccc(OCC5COC(Cn6cncn6)(c6ccc(Cl)cc6Cl)O5)cc4)CC3)cc2)c1=O (stereo not drawn) [Comparative Example 25]	3.1%	4.8%	9.1%	12.7%	15.5%	18.2%	19.7%	38.9%	100.0%			
CCC(C)n1ncn(-c2ccc(N3CCN(c4ccc(OCC5COC(Cn6cncn6)(c6ccc(Cl)cc6Cl)O5)cc4)CC3)cc2)c1=O (stereo not drawn) [ITZ, itraconazole]										< 1 µg/mL	does not result in IL-12 elevation	all showed the presence of ITZ
